Tests used:
Staphylococcus aureus = experiment: Antimicrobial testing by agar dilution, Staphylococcus aureus; format: cell-based; details: after 10, 20, 40 and 60 min at all dilutions 1:100, 1:200, 1:400, 1:800
Method: (§1) The antimicrobial properties of the 9-(4-Nitrobenzylidene)-4-(4-nitrophenyl)-3-cyano-2-methoxy-6,7,8,9-tetrahydro-5H-cyclohepta[b]pyridine was studied by the method of agar dilution. Test solutions of each compound was prepared in concentration of 1% using dimethylformamide as a solvent then they are diluted in physiological solution to obtain the final experimental dilutions 1:100, 1:200, 1:400, 1:800. The effect of these substances are compared with furacillin in a controllable study. The testing microbes used were gram positive bacteria Staphylococcus aureus, gram negative bacteria Pseudomonas aeruginosa, Escherichia coli and Candida albicans fungi were taken.
(§2) The experiments used for this survey were meat-pentonlu agar (EPA) for cultivation of bacteria and Saburo environment for fungi. Each experiment used 1 mL of test solution on each plate 500 min. Add 2 drops of emulsified with microbes feel. All experimental samples were taken from the agar after 10, 20, 40, 60 minutes in the environment on the basis of Patrk planted. Bacteria were cultivated at a temperature of 37° C. for 1 day and the mushroom was kept in a thermostat for […] at a temperature of 28° C. Then the results were checked.

Escherichia coli = experiment: Antimicrobial testing by agar dilution, Escherichia coli; format: cell-based; details: after 10, 20, 40 and 60 min at all dilutions 1:100, 1:200, 1:400, 1:800
Method: as §1, §2

Pseudomonas aeruginosa = experiment: Antimicrobial testing by agar dilution, Pseudomonas aeruginosa; format: cell-based; details: after 10, 20, 40 and 60 min at all dilutions 1:100, 1:200, 1:400, 1:800
Method: as §1, §2

Candida albicans = experiment: Antimicrobial testing by agar dilution, Candida albicans; format: cell-based; details: after 10, 20, 40 and 60 min at all dilutions 1:100, 1:200, 1:400, 1:800
Method: as §1, §2

For `COc1nc2c(c(-c3ccc([N+](=O)[O-])cc3)c1C#N)CCCC/C2=C\c1ccc([N+](=O)[O-])cc1` [9-(4-nitrobenzylidene)-4-(4-nitrophenyl)-3-cyano-2-methoxy-6,7,8,9-tetrahydro-5H-cyclohepta[b]pyridine], the inhibition activity (Staphylococcus aureus) was “most higher inhibition activity”, the inhibition activity (Escherichia coli) was “most higher inhibition activity” and the inhibition activity (Pseudomonas aeruginosa) was “most higher inhibition activity”. For the same molecule, the inhibition activity (Candida albicans) was “most higher inhibition activity” and the melting point was 133 to 135 °C.

— US11932605B1, “9-(4-nitrobenzylidene)-4-(4-nitrophenyl)-3-cyano-2-methoxy-6,7,8,9-tetrahydro-5h-cyclohepta[b]pyridine as an antimicrobial compound” (KING FAISAL UNIVERSITY, priority 2023, dated 2024)
